Laboratory results published in patent publication US4485100A, “Elastase inhibitors, a process for their preparation and medicaments containing these inhibitors” (Bayer Aktiengesellschaft, priority 1982, dated 1984).

Test system: Wistar rats
Experiment: Aerosil-induced inflammatory reaction, paw swelling
Format: in vivo, rat
Conditions: treated 15 hours after noxa, 21 hour value
Procedure: The inflammatory reaction was induced by intraplantary injection of 0.1 ml of a 2% Aerosil suspension into a hind paw of Wistar rats weighing 130-160 g. The inhibitors according to the invention used for the treatment of the inflammatory reaction were dissolved in 0.9% sodium chloride solution in a concentration of 10-20 mg/ml. The experimental animals were treated by intraperitoneal, subcutaneous or intravenous injection of 0.5-1.0 ml of the solution of the inhibitors 15 hours after the inflammatory noxa had been set. The swelling of the inflamed paw, which is a measure of the severity of the inflammatory reaction, was followed with respect to time using a Kemper antiphlogmeter. The 21 hour value after the induction of inflammation (=6 hours after injection of the inhibitors according to the invention) was determined to ascertain the dose/effect relationship.

Question: Which “Inhibition of the inflammatory reaction, swelling of inflamed paw” value does the source give for “basic pancreatic trypsin inhibitor [BPTI]” here?
Answer: does not inhibit the inflammatory reaction
